Experimental data reported in patent US6716858B1, “Methods for inhibiting diabetic complications” (Kansas University Medical Center, priority 1995, dated 2004).

Assays:
[1] = tested on: AGE formation in bovine serum albumin (BSA); experiment: Uninterrupted glycation of BSA with glucose, anti-AGE ELISA; assay type: biochemical; settings: BSA 10 mg/ml, 1.0 M glucose, pH 7.5, 37° C., 6 weeks; inhibitors 3, 15 and 50 mM
Procedure: (§1) Uninterrupted Glycation with Glucose Bovine serum albumin, ribonuclease A, and human hemoglobin were incubated with glucose at 37° C. in 0.4 M sodium phosphate buffer of pH 7.5 containing 0.02% sodium azide. The protein, glucose (at 1.0 M), and prospective inhibitors (at 0.5, 3, 15 and 50 mM) were introduced into the incubation mixture simultaneously. Solutions were kept in the dark in capped tubes. Aliquots were taken and immediately frozen until analyzed by ELISA at the conclusion of the reaction. The incubations were for 3 weeks (Hb) or 6 weeks (RNase, BSA).
(§2) ELISA detection of AGE products. The general method of Engvall (1981, Methods Enzymol. 70:419-439) was used to perform the ELISA. Typically, glycated protein samples were diluted to approximately 1.5 ug/ml in 0.1 M sodium carbonate buffer of pH 9.5 to 9.7. The protein was coated overnight at room temperature onto 96-well polystyrene plates by pippetting 200 ul of the protein solution in each well (0.3 ug/well). After coating, the protein was washed from the wells with a saline solution containing 0.05% Tween-20. The wells were then blocked with 200 ul of 1% casein in carbonate buffer for 2 h at 37° C. followed by washing. Rabbit anti-AGE antibodies were diluted at a titer of about 1:350 in incubation buffer, and incubated for 1 h at 37° C., followed by washing. In order to minimize background readings, antibodies R479 used to detect glycated RNase were raised against glycated BSA, and antibodies R618 used to detect glycated BSA and glycated Hb were raised against glycated RNase. An alkaline phosphatase-conjugated antibody to rabbit IgG was then added as the secondary antibody at a titer of 1:2000 or 1:2500 (depending on lot) and incubated for 1 h at 37° C., followed by washing. The p-nitrophenylphosphate substrate solution was then added (200 ul/well) to the plates, with the absorbance of the released p-nitrophenolate being monitored at 410 nm with a Dynatech MR 4000 microplate reader.
FIGS. 1 A-D are graphs which show the effect of vitamin B6 derivatives on post-Amadori AGE formation in bovine serum albumin glycated with glucose. BSA (10 mg/ml) was incubated with 1.0 M glucose in the presence and absence of the various indicated derivative in 0.4 M sodium phosphate buffer of pH 7.5 at 37° C. for 6 weeks. Aliquots were assayed by ELISA using R618 anti-AGE antibodies. Concentrations of the inhibitors were 3, 15 and 50 mM. Inhibitors used in FIGS. (1A) Pyridoxamine (PM); (1B) pyridoxal phosphate (PLP); (1C) pyridoxal (PL); (1D) pyridoxine (PN).
FIGS. 2A-D are graphs which show the effect of vitamin B1 derivatives and aminoguanidine (AG) on AGE formation in bovine serum albumin. BSA (10 mg/ml) was incubated with 1.0 M glucose in the presence and absence of the various indicated derivative in 0.4 M sodium phosphate buffer of pH 7.5 at 37° C. for 6 weeks. Aliquots were assayed by ELISA using R618 anti-AGE antibodies. Concentrations of the inhibitors were 3, 15 and 50 mM. Inhibitors used in FIGS. (2A) Thiamine pyrophosphate (TPP); (2B) thiamine monophosphate (TP); (2C) thiamine (T); (2D) aminoguanidine (AG).

[2] = tested on: AGE formation during uninterrupted glycation of bovine serum albumin (BSA) by ribose; experiment: Uninterrupted ribose glycation assay, BSA; assay type: biochemical; settings: 0.05 M ribose, 6 weeks, inhibitors 0.5-50 mM
Procedure: as §2
as §1, with “ribose glycation assays” for “Glycation with Glucose”, “ribose” for “glucose”, “protein (10 mg/ml or 1 mg/ml), 0.05 M ribose,” for “protein, glucose (at 1.0 M),”, “BSA). Glycation reactions were monitored for constant pH throughout the duration of the experiments.” for “BSA).”

[3] = tested on: AGE formation during uninterrupted glycation of ribonuclease A (RNase A) by ribose; experiment: Uninterrupted ribose glycation assay, RNase; assay type: biochemical, bovine; settings: continuous 0.05 M ribose, 6 weeks, inhibitors 0.5-50 mM
Procedure: as §2
as §1, with “ribose glycation assays” for “Glycation with Glucose”, “ribose” for “glucose”, “protein (10 mg/ml or 1 mg/ml), 0.05 M ribose,” for “protein, glucose (at 1.0 M),”, “BSA). Glycation reactions were monitored for constant pH throughout the duration of the experiments.” for “BSA).”
The inhibitory effects of vitamin B1 and B6 derivatives on the kinetics of antigenic AGE formation were evaluated by polyclonal antibodies specific for AGEs. Initial inhibition studies were carried out on the glycation of bovine ribonuclease A (RNase) in the continuous presence of 0.05 M ribose, which is the concentration of ribose where the rate of AGE formation is near maximal.

[4] = tested on: post-Amadori AGE formation, RNase Amadori intermediate; experiment: Interrupted (post-Amadori) ribose glycation assay, RNase; assay type: biochemical, bovine; settings: RNase, 24 h in 0.5 M ribose, then free ribose removed, 37° C.
Procedure: as §2
Glycation Modifications Modification with ribose or glucose was generally done at 37° C. in 0.4 M phosphate buffer of pH 7.5 containing 0.02% sodium azide. The high buffer concentration was always used with 0.5 M ribose modifications. The solutions were kept in capped tubes and opened only to remove timed aliquots that were immediately frozen for later carrying out the various analyses. “Interrupted glycation” experiments were carried out by first incubating protein with the ribose at 37° C. for 8 or 24 h, followed by immediate and extensive dialysis against frequent cold buffer changes at 4° C. The samples were then reincubated by quickly warming to 37° C. in the absence of external ribose. Aliquots were taken and frozen at various intervals for later analysis. Due to the low molecular weight of RNase, protein concentrations were remeasured after dialysis even when low molecular weight cut-off dialysis tubing was used. An alternative procedure was also devised (see below) in which interruption was achieved by simple 100-fold dilution from reaction mixtures containing 0.5 M ribose. Protein concentrations were estimated from UV spectra. The difference in molar extinction between the peak (278 nm) and trough (250 nm) was used for RNase concentration determinations in order to compensate for the general increase in UV absorbance that accompanies glycation. Time-dependent UV-difference spectral studies were carried out to characterize the glycation contributions of the UV spectrum. […]
Glycation was first carried out by incubating protein (10 mg/ml) with 0.5 M ribose at 37° C. in 0.4 M phosphate buffer at pH 7.5 containing 0.2% sodium azide for 24 h in the absence of inhibitors. Glycation was then interrupted to remove excess and reversibly bound (Schiff base) sugar by extensive dialysis against frequent cold buffer changes at 4° C.

[5] = tested on: post-Amadori AGE formation, BSA Amadori intermediate; experiment: Interrupted (post-Amadori) ribose glycation assay, BSA; assay type: biochemical, bovine; settings: 24 h in 0.5 M ribose, then free ribose removed, 37° C.
Procedure: as §2
Glycation was first carried out by incubating protein (10 mg/ml) with 0.5 M ribose at 37° C. in 0.4 M phosphate buffer at pH 7.5 containing 0.2% sodium azide for 24 h in the absence of inhibitors. Glycation was then interrupted to remove excess and reversibly bound (Schiff base) sugar by extensive dialysis against frequent cold buffer changes at 4° C. The glycated intermediate samples containing maximal amount of Amadori product and little AGE (depending on protein) were then quickly warmed to 37° C. without re-addition of ribose. This initiated conversion of Amadori intermediates to AGE products in the absence or presence of various concentrations (typically 3, 15 and 50 mM) of prospective inhibitors. Aliquots were taken and frozen at various intervals for later analysis. The solutions were kept in capped tubes and opened only to remove timed aliquots that were immediately frozen for later carrying out the various analyses.

rats = experiment: Ribose administration to rats (Phase I and II), renal physiology; assay type: in vivo, rat
Procedure: Two groups of six rats each were given in one day either:
a. 300 mM ribose (two intraperitoneal infusions 6-8 hours apart, each 5% of body weight as ml); or
b. 50 mM ribose (one infusion)
Rats were then kept for 4 days with no further ribose administration, at which time they were sacrificed and the following physiological measurements were determined: (i) initial and final body weight; (ii) final stage kidney weight; (iii) initial and final tail-cuff blood pressure; (iv) creatinine clearance per 100 g body weight.
Groups of rats (3-6) were intraperitoneally given 0.3 M “low ribose dose” (LR) or 1.0 M “high ribose dose” (HR) by twice-daily injections for either (i) 1 day, (ii) a “short-term” (S) of 4 days, or (iii) a “long-term” (L) of 8 days. Additionally, these concentrations of ribose were included in drinking water.

ribose-treated rats = experiment: Ribose rat model, intervention by compounds (Phase III); assay type: in vivo; settings: 1 M ribose alone, 8 days
Procedure: Sixty rats were randomized into 9 different groups, including those exposed to 1 M ribose for 8 days in the presence and absence of aminoguanidine, pyridoxamine, and thiamine pyrophosphate as follows:
(ii) high dose (250 mg/kg body weight) of pyridoxamine (“compound-P”);
(iii) high dose (250 mg/kg body weight of thiamine pyrophosphate (“compound-T” or “TPP”); and
(iv) low dose (25 mg/kg body weight) of aminoguanidine (“AG”).
(i) only 1 M ribose-saline (2×9 cc daily IP for 8 days);
(ii) ribose plus low dose (“LP”) of pyridoxamine (25 mg/kg body weight injected as 0.5 ml with 9 cc ribose);
(iii) ribose plus high dose (“HP”) of pyridoxamine (250 mg/kg body weight injected as 0.5 ml with 9 cc ribose);
(iv) ribose plus high dose (“HT”) of thiamine pyrophosphate (250 mg/kg body weight injected as 0.5 ml with 9 cc ribose); and
(v) ribose plus low dose of amino guanidine (25 mg/kg body weight injected as 0.5 ml with 9 cc ribose).
Unlike Phase II, no ribose was administered in drinking water. Intervention compounds were pre-administered for one day prior to introducing them with ribose.

[6] = Phase II: 0.3 M or 1.0 M ribose for 1, 4 or 8 days

Structure (SMILES): Cc1ncc(COP(=O)(O)O)c(C=O)c1O [pyridoxal phosphate, pyridoxal-5′-phosphate]
- inhibition of antigenic AGE formation (ELISA) [1]: strongly suppressed antigenic AGE formation at even the lowest concentrations tested
- inhibition of overall kinetics of AGE formation from ribose [2]: mostly inhibited the rate of AGE formation, but not the final levels of AGE formed
- inhibition of overall kinetics of AGE formation from ribose [3]: significantly inhibited the rate of AGE formation on RNase at concentrations of 50 mM and 15 mM
- inhibition of post-Amadori AGE formation [4]: showed significant inhibition at 15 mM

Structure (SMILES): Cc1ncc(CO)c(C=O)c1O [pyridoxal]
- inhibition of antigenic AGE formation (ELISA) [1]: effective above 15 mM
- inhibition of overall kinetics of AGE formation from ribose [2]: mostly inhibited the rate of AGE formation, but not the final levels of AGE formed
- inhibition of overall kinetics of AGE formation from ribose [3]: significantly inhibited the rate of AGE formation on RNase at concentrations of 50 mM and 15 mM
- inhibition of post-Amadori AGE formation [4]: did not show any significant inhibition at 15 mM

Structure (SMILES): Cc1ncc(CO)c(CO)c1O [pyridoxine]
- inhibition of post-Amadori AGE formation [5]: did not produce any inhibition
- inhibition of antigenic AGE formation (ELISA) [1]: slightly effective at the highest concentrations tested
- inhibition of overall kinetics of AGE formation from ribose [2]: failed to inhibit AGE formation on BSA
- inhibition of overall kinetics of AGE formation from ribose [3]: moderately inhibited AGE formation on RNase

Structure (SMILES): O=C[C@H](O)[C@H](O)[C@H](O)CO [ribose]
- Albumin effusion rate (AER) (rats; [6]): increased significantly in a ribose-dependent manner at 1-day and 4-day exposures
- creatinine clearance (rats; [6]): decreased in all groups in a ribose dose-dependent and time-dependent manner
- tail-cuff blood pressure (rats; Phase II: 0.3 M or 1.0 M ribose twice daily IP for 1, 4 or 8 days, also in drinking water): increased in all groups of ribose-treated rats
- tail-cuff blood pressure (rats; high ribose (2×300 mM) in one day, measured 4 days later, from 66±4): 106±5
- creatinine clearance (rats; high ribose (2×300 mM), normal range expected about 1.0-1.2): 0.62±0.13 cc per 100 g body weight
- tail-cuff blood pressure (rats; low ribose (1×50 mM) in one day, measured 4 days later, from 66±4): 83±3
- creatinine clearance (rats; low ribose (1×50 mM), normal range expected about 1.0-1.2): 0.87±0.15 cc per 100 g body weight
- Albumin effusion rate (AER) (ribose-treated rats): elevated
- inhibition of post-Amadori AGE formation [4]: diminished by increasing ribose concentrations

Structure (SMILES): Cc1ncc(C[n+]2csc(CCOP(=O)(O)O)c2C)c(N)n1 [thiamine monophosphate]
- inhibition of post-Amadori AGE formation [5]: showed some intermediate effect
- inhibition of antigenic AGE formation (ELISA) [1]: not inhibitory
- inhibition of overall kinetics of AGE formation from ribose [3]: little effect on the rate of AGE formation, but a substantial decrease in the final level of AGE formed in the presence of the highest concentration of inhibitor
- inhibition of post-Amadori AGE formation [4]: showed some intermediate effect

Structure (SMILES): Cc1ncc(C[n+]2csc(CCO)c2C)c(N)n1 [thiamine]
- inhibition of post-Amadori AGE formation [5]: showed no effect
- inhibition of antigenic AGE formation (ELISA) [1]: not inhibitory
- inhibition of overall kinetics of AGE formation from ribose [2]: inhibited the final levels of AGEs formed, without greatly affecting the rate of AGE formation
- inhibition of overall kinetics of AGE formation from ribose [3]: little effect on the rate of AGE formation, but a substantial decrease in the final level of AGE formed in the presence of the highest concentration of inhibitor
- inhibition of post-Amadori AGE formation [4]: showed no effect
